Data set [1] is described as follows: Terbium(III) luminescence: determination of q. In kind it is physicochemical. The note with it: for q (H2O): pure water; for τD2O: D2O; for τH2O: H2O. On the procedure: The q number in the absence and presence of CO32− was determined using TbIII analogues (5a′, 5b′, 5c′, and 11′). Given the similarities in chemistry amongst the lanthanides, TbIII luminescence is a convenient and established method for determining the coordination environment in corresponding GdIII chelates. The narrow […] emission at 543 nm and the relatively long lived 0.4 ms excited state lifetime for Tb(H2O)x facilitates accurate assessment of the inner-coordination sphere, differentiating between coordination of OH, OD, NH, and ND oscillators. 38 Luminescent decay curves were fit to the empirically derived Horrock's equation (Eq. 2). It was expected that the ortho position would have the lowest q in the presence of CO32−, creating a “dark” state with the lowest relaxivity.
The number of water molecules directly coordinated to the lanthanide center (q), was determined for each of the TbIII analogues 5a′-c′ (see Table 1), 10a′-d′ (Table 2), and 11′ in MilliQ water and MOPS/carbonate buffer (10 mm MOPS, 24 mm NaHCO3, pH 7.4).
The monoexponential fluorescence decay of an ≈1 mm solution of each complex was determined using a Hitachi F4500 fluorometer (Schaumburg, IL). An excitation wavelength of 308 nm and an emission wavelength of […] were used, and 25 scans were acquired and averaged for each solution. The averaged data was fit with a monoexponential decay function, and the time constant (t) for each solution was determined in triplicate. The fluorescence decay curves of the complexes were measured in both H2O and D2O, and in both buffer and deuterated buffer, obtained by lyophilizing and re-suspending the buffer in D2O three times (FIG. 17A-E). The q values were calculated using the empirically derived Horrock's equation for Tb(III) (Eq. 2): […]

The next data set deals with T1, β-galactosidase (Escherichia coli, UniProt P00722).
T1 construct: purchased Sigma Aldrich
In kind it is biochemical. Particulars: 25° C., TES buffer, 1 mM MgCl2, 150 mM NaCl; for Kcat: 420 nm; for Km: nitro-phenol absorbance 420 nm. On the procedure:
Catalytic efficiencies for five substrates, 5a-c, ONPG, and PNPG were evaluated by UV-vis spectroscopy (Table 3). ONPG and PNPG are literature standards that were used to ensure the assay was performed adequately and to serve as benchmarks of activation kinetics in the absence of the GdIII chelate. […] Catalytic efficiency is directly related to the imaging window wherein activation to the r1, on state is competing with clearance.
Enzyme activation kinetics were determined by the method of initial rates for compounds 5a-c via the appearance of the nitrophenol byproduct of activation. The characteristic absorption was monitored at 420 nm. Concentrations of substrate used were 0, 0.05, 0.1, 0.12, 0.15, 0.3, 0.4, 0.5, 0.75, 1, and 2 mM. Each concentration was measured in triplicate and exact concentrations were measured by ICP-MS (see Table 2).

A short description of data set [2]: Relaxivity (1.4 T) in MOPS and MOPS/CO3^2−. Type of data set: physicochemical. Particulars: intermolecular series 5a-c, 37° C. On the procedure:
While measurements of q indicate how well an agent can restrict water access to the GdIII center, the most important property for a bio-activated contrast agent is the change in relaxivity upon enzymatic cleavage (r1). To evaluate the signal change in the presence of CO32−, relaxivities of the intermolecular activated agents were measured in two different buffer conditions, the non-coordinating buffer MOPS and MOPS/CO32−.
T1 relaxation times were obtained for 5a-c (FIG. 13), and complexes 10a-d (FIG. 14), and 11 at 37° C. at 60 MHz (1.4 T) on a Bruker mq60 minispec spectrometer (Billerica, MA). Three 1 mM solutions of each complex were prepared in four different buffer conditions 1) 10 mm 3-(N-morpholino)propanesulfonic acid (MOPS), 100 mm NaCl, pH 7.4, 2) 10 mm MOPS, 24 mm NaHCO3, 100 mm NaCl, pH 7.4, 3) Dulbecco's Phosphate Buffer (DPBS) pH 7.3 Life Technologies, and 4) b-galactosidase enzyme assay buffer, 200 mm sodium phosphate, 100 mm bmercaptoethanol, 2 mm MgCl2, pH 7.3 (FIG. 15). Three sets of five serial dilutions (about 1 mm, 0.5 mm, 0.25 mm, 0.125 mm and 0.0625 mm) were prepared for each complex. T1 relaxation rates were measured using an inversion recovery pule sequence (t1_ir_mb) with a 10 ms first pulse separation, recycle delay and final pulse separation ≥5 T1. T1 relaxation rates were plotted as a function of GdIII concentrations as determined by ICP-MS, r1/r2 was obtained from linear fit of concentration vs. T1 as described in Equation (1).

Setting [3] is: Horrock's equation for TbIII, MOPS/CO32- buffer pH 7.4.
Where [4] appears, read: Tb(III) analogues, emission 543 nm, ambient temperature.
Setting [5] is: deuterated MOPS/CO32- buffer pH 7.4.
[6] abbreviates: 10a′-d′, Horrock's equation, MOPS/CO3^2− buffer pH 7.4.
Where [7] appears, read: 10a′-d′, MOPS/CO3^2− buffer pH 7.4.
Where [8] appears, read: 10a′-d′, deuterated MOPS/CO3^2− buffer pH 7.4.
Setting [9] is: Tb(III) analogues 10a′-d′, emission 543 nm.

SMILES strings stand for the structures.

T1 sequence (P00722 2-1024): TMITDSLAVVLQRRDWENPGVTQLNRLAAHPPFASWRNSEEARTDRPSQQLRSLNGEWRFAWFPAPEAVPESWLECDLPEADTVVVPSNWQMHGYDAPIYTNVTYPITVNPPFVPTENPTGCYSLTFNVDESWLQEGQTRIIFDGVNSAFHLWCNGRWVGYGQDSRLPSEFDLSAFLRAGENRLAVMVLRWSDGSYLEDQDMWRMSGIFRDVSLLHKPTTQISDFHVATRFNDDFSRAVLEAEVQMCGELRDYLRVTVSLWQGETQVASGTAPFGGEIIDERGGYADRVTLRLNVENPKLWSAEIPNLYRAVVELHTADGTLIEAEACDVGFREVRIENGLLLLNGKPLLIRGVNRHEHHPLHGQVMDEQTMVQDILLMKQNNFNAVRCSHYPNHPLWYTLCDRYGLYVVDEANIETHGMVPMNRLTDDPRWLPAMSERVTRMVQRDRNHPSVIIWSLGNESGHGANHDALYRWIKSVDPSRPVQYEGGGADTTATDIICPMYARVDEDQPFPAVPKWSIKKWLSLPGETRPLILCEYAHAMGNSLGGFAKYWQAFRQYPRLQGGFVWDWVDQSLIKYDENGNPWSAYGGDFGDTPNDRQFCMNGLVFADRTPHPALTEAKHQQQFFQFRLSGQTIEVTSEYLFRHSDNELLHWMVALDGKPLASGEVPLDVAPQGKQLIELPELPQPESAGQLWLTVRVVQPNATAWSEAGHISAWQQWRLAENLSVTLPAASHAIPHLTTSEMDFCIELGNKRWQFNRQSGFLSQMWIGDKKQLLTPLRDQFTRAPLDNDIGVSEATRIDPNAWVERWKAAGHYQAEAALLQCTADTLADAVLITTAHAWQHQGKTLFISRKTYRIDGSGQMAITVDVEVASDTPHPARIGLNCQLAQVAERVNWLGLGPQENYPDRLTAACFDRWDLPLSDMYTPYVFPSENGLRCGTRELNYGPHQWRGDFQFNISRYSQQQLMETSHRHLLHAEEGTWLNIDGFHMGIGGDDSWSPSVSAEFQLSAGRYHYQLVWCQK

Consider `O=C([O-])CN1CCN(CCNC(=O)OCc2cc([N+](=O)[O-])ccc2O[C@@H]2O[C@H](CO)[C@H](O)[C@H](O)[C@H]2O)CCN(CC(=O)[O-])CCN(CC(=O)[O-])CC1.[Tb+3]` [5a′, Terbium(III)-1-(2-(2-(1-(4,7,10-triscarboxymethyl-(1,4,7,10tetraazacyclododecyl)))ethylcarbamoyloxymethyl)-4-nitrophenyl)-β-D-galactopyranose], for which the “q (buffer)” value in data set [1] (setting [3]) was determined as 0.2. The “q (H2O)” value in data set [1] (Horrock's equation for TbIII) stood at 1.1. Moreover, in data set [1] (MOPS/CO32- buffer pH 7.4), the τHbuf was 1.7(6) ms. Moreover, in data set [1] (setting [4]), the τD2O is recorded as 2.2(3) ms and the τH2O is 1.2(8) ms. Moreover, the τDbuf in data set [1] (setting [5]) is given as 2.2(0) ms.
Regarding `O=C([O-])CN1CCN(CCNC(=O)OCc2ccc([N+](=O)[O-])c(O[C@@H]3O[C@H](CO)[C@H](O)[C@H](O)[C@H]3O)c2)CCN(CC(=O)[O-])CCN(CC(=O)[O-])CC1.[Tb+3]` [5b′, Terbium(III)-1-(5-(2-(1-(4,7,10-triscarboxymethyl-(1,4,7,10tetraazacyclododecyl)))ethylcarbamoyloxymethyl)-2-nitrophenyl)-β-D-galactopyranose], the “q (buffer)” value in data set [1] (setting [3]) amounted to 0. Further, in data set [1] (Horrock's equation for TbIII), the “q (H2O)” value amounted to 0.4. Also, in data set [1] (MOPS/CO32- buffer pH 7.4), the τHbuf is on record as 1.4(2) ms. Besides, in data set [1] (setting [4]), the τD2O was 1.6(6) ms and the τH2O was 1.3(0) ms. Further, the τDbuf in data set [1] (setting [5]) is reported as 1.5(4) ms.
Broadly, the Km is the concentration of substrate that gives half-maximal velocity. As for `O=[N+]([O-])c1ccccc1O[C@@H]1O[C@H](CO)[C@H](O)[C@H](O)[C@H]1O` [ONPG, ortho-nitrophyenyl-[…]-galactoside, reference compound], on β-galactosidase, the Kcat is 600 +/− 29.7 S−1 and the Km is 120 µM.
In the case of `CCOC(=O)CCCCCCCNc1cc(COC(=O)NCCN2CCN(CC(=O)[O-])CCN(CC(=O)[O-])CCN(CC(=O)[O-])CC2)ccc1O[C@@H]1O[C@H](CO)[C@H](O)[C@H](O)[C@H]1O.[Tb+3]` [10d′, Terbium(III)-1-(4-(2-(1-(4,7,10-triscarboxymethyl-(1,4,7,10tetraazacyclododecyl)))ethylcarbamoyloxymethyl)-2-((8-ethoxy-8-oxooctyl)amino)phenyl)-β-D-galactopyranose], the “q (buffer)” value in data set [1] (setting [6]) came to 0.1. In addition, the “q (H2O)” value in data set [1] (10a′-d′, Horrock's equation) was 0.1. In data set [1] (setting [7]), the τHbuf was 1.9(7) ms. Further, in data set [1] (setting [8]), the τDbuf is recorded as 2.0(2) ms. The τD2O in data set [1] (Tb(III) analogues 10a′-d′) was 2.2(6) ms. Moreover, in data set [1] (setting [9]), the τH2O is listed as 1.9(3) ms.
As to `O=C([O-])CN1CCN(CCNC(=O)OCc2ccc(O[C@@H]3O[C@H](CO)[C@H](O)[C@H](O)[C@H]3O)c([N+](=O)[O-])c2)CCN(CC(=O)[O-])CCN(CC(=O)[O-])CC1.[Tb+3]` [5c′, Terbium(III)-1-(4-(2-(1-(4,7,10-triscarboxymethyl-(1,4,7,10tetraazacyclododecyl)))ethylcarbamoyloxymethyl)-2-nitrophenyl)-β-D-galactopyranose], the “q (buffer)” value in data set [1] (setting [3]) turned out to be 0. Besides, the “q (H2O)” value in data set [1] (Horrock's equation for TbIII) was determined as 0.7. Also, in data set [1] (MOPS/CO32- buffer pH 7.4), the τHbuf is 1.0(2) ms. Moreover, in data set [1] (setting [4]), the τD2O is given as 1.1(1) ms and the τH2O is given as 0.8(9) ms. The τDbuf in data set [1] (setting [5]) is recorded as 1.0(7) ms.
For the compound `CCOC(=O)CCCCCNc1cc(COC(=O)NCCN2CCN(CC(=O)[O-])CCN(CC(=O)[O-])CCN(CC(=O)[O-])CC2)ccc1O[C@@H]1O[C@H](CO)[C@H](O)[C@H](O)[C@H]1O.[Tb+3]` [10c′, Terbium(III)-1-(4-(2-(1-(4,7,10-triscarboxymethyl-(1,4,7,10tetraazacyclododecyl)))ethylcarbamoyloxymethyl)-2-((6-ethoxy-6-oxohexyl)amino)phenyl)-β-D-galactopyranose], in data set [1] (setting [6]), the “q (buffer)” value was 0.1. The “q (H2O)” value in data set [1] (10a′-d′, Horrock's equation) is recorded as 0.1. The τHbuf in data set [1] (setting [7]) was 1.9(3) ms. In addition, the τDbuf in data set [1] (setting [8]) is on record as 2.2(6) ms. Also, in data set [1] (Tb(III) analogues 10a′-d′), the τD2O is listed as 2.2(9) ms. Further, the τH2O in data set [1] (setting [9]) is 1.8(9) ms.
On to `O=[N+]([O-])c1ccc(O[C@@H]2O[C@H](CO)[C@H](O)[C@H](O)[C@H]2O)cc1` [PNPG, para-nitrophyenyl-[…]-galactoside, reference compound], for which, on β-galactosidase, the Kcat was 276 +/− 16.9 S−1 and the Km turned out to be 61 µM.
As to `O=C([O-])CN1CCN(CCNC(=O)OCc2ccc(O[C@@H]3O[C@H](CO)[C@H](O)[C@H](O)[C@H]3O)c([N+](=O)[O-])c2)CCN(CC(=O)[O-])CCN(CC(=O)[O-])CC1.[Gd+3]` [5c, Gadolinium(III)-1-(4-(2-(1-(4,7,10-triscarboxymethyl-(1,4,7,10tetraazacyclododecyl)))ethylcarbamoyloxymethyl)-2-nitrophenyl)-β-D-galactopyranose], on β-galactosidase, the Kcat is reported as 765 +/− 37.8 S−1 and the Km was found to be 129 µM. The “Δr1 relative to the cleaved complex 11 (percent change in relaxivity, dark to bright)” value in data set [2] is given as “negative”.
In the same order, the values of `O=C([O-])CN1CCN(CCNC(=O)OCc2cc([N+](=O)[O-])ccc2O[C@@H]2O[C@H](CO)[C@H](O)[C@H](O)[C@H]2O)CCN(CC(=O)[O-])CCN(CC(=O)[O-])CC1.[Gd+3]` [5a, Gadolinium(III)-1-(2-(2-(1-(4,7,10-triscarboxymethyl-(1,4,7,10tetraazacyclododecyl)))ethylcarbamoyloxymethyl)-4-nitrophenyl)-β-D-galactopyranose] are 637 +/− 21.9 S−1, 272 µM and “negative”.
For the compound `CCOC(=O)CNc1cc(COC(=O)NCCN2CCN(CC(=O)[O-])CCN(CC(=O)[O-])CCN(CC(=O)[O-])CC2)ccc1O[C@@H]1O[C@H](CO)[C@H](O)[C@H](O)[C@H]1O.[Tb+3]` [10a′, Terbium(III)-1-(4-(2-(1-(4,7,10-triscarboxymethyl-(1,4,7,10tetraazacyclododecyl)))ethylcarbamoyloxymethyl)-2-((2-ethoxy-2-oxoethyl)amino)phenyl)-β-D-galactopyranose], the “q (buffer)” value in data set [1] (setting [6]) is reported as 0.3. For the same compound, the “q (H2O)” value in data set [1] (10a′-d′, Horrock's equation) worked out at 1.3. Moreover, the τHbuf in data set [1] (setting [7]) was 1.7(2) ms. The τDbuf in data set [1] (setting [8]) is reported as 2.1(8) ms. Further, the τD2O in data set [1] (Tb(III) analogues 10a′-d′) is listed as 2.1(0) ms. For the same compound, the τH2O in data set [1] (setting [9]) is 1.1(4) ms.
`CCOC(=O)CCCNc1cc(COC(=O)NCCN2CCN(CC(=O)[O-])CCN(CC(=O)[O-])CCN(CC(=O)[O-])CC2)ccc1O[C@@H]1O[C@H](CO)[C@H](O)[C@H](O)[C@H]1O.[Tb+3]` [10b′, Terbium(III)-1-(4-(2-(1-(4,7,10-triscarboxymethyl-(1,4,7,10tetraazacyclododecyl)))ethylcarbamoyloxymethyl)-2-((4-ethoxy-4-oxobutyl)amino)phenyl)-β-D-galactopyranose]: the “q (buffer)” value in data set [1] (setting [6]) came out at 0. Further, in data set [1] (10a′-d′, Horrock's equation), the “q (H2O)” value stood at 0.5. Also, the τHbuf in data set [1] (setting [7]) is on record as 1.8(9) ms. Further, in data set [1] (setting [8]), the τDbuf is recorded as 1.8(8) ms. Also, in data set [1] (Tb(III) analogues 10a′-d′), the τD2O is 2.2(6) ms. In addition, in data set [1] (setting [9]), the τH2O is 1.6(3) ms.
